Reference: the Kinase Knowledgebase extract (Sharma et al. 2016)

These compounds were tested against MAPK14 (human) (UniProt Q16539) (assay: Inhibition of MAPK14 Kinase Activity).
Chain of MAPK14 (human) (Q16539 whole entry, looked up): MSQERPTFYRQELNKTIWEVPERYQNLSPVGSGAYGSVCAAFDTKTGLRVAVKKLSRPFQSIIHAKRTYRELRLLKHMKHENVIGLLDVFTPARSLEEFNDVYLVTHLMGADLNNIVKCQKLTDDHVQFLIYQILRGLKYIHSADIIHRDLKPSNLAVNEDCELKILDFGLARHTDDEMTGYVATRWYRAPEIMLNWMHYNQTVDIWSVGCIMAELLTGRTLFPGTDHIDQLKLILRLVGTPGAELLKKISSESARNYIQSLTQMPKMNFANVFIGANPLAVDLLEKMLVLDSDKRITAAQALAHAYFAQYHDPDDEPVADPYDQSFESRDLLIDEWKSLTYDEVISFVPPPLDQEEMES

IC50, ≤ 10 µM:
Cc1ccc(CC2CCC(=O)N(c3c(Cl)csc3Cl)C2)cc1 (stereo unspecified), O=C1CSC(Cc2ccc(F)cc2)CN1c1c(Cl)cccc1Cl (stereo unspecified), Cc1cccc(C)c1N1CC(Cc2ccccc2OCC(C)C)CCC1=O (stereo unspecified), O=C1CCC(Cc2ccc(F)cc2F)CN1c1c(Cl)cc(CO)nc1Cl (stereo unspecified), NNC(=O)CNc1cc(Cl)c(N2CC(Cc3ccc(F)cc3F)CCC2=O)c(Cl)c1 (stereo unspecified), O=C1CCC(Sc2ccc(F)cc2F)CN1C1C(Cl)CCCC1Cl (stereo unspecified), Cc1ccc(CC2CCC(=O)N(c3c(Cl)cccc3Cl)C2)c(C)c1 (stereo unspecified), Cc1ccc(OC2CCC(=O)N(C3C(Cl)CCCC3Cl)C2)cc1 (stereo unspecified), COc1ccccc1CC1COC(=O)N(c2c(Cl)cccc2Cl)C1 (stereo unspecified), O=C1CCC(Sc2cccc3ccccc23)CN1c1c(Cl)cccc1Cl (stereo unspecified), CN(C)c1cc(Cl)c(N2CC(Cc3ccc(F)cc3F)CCC2=O)c(Cl)c1 (stereo unspecified), O=C1CC/C(=C\c2ccc(F)cc2F)CN1c1c(Cl)cc(Br)cc1Cl, Cc1ccccc1CC1CNC(=O)N(c2c(Cl)cccc2Cl)C1 (stereo unspecified), Cc1ccc(CC2CN(c3c(Cl)cccc3Cl)C(=O)CS2)cc1 (stereo unspecified), CN(C)CCNc1cc(Cl)c(N2CC(Cc3ccccc3F)CCC2=O)c(Cl)c1 (stereo unspecified), O=C(Cc1ccccc1)Nc1cc(Cl)c(N2CC(Cc3ccc(F)cc3F)CNC2=O)c(Cl)c1 (stereo unspecified), Cc1cc(C(=O)O)cc(C)c1N1CC(Cc2ccc(F)cc2F)CNC1=O (stereo unspecified), O=C1CCC(Oc2ccc(Cl)cc2)CN1c1c(Cl)cccc1Cl (stereo unspecified), O=C1CCC(Cc2ccc(F)cc2F)CN1c1c(Cl)sc(O)c1Cl (stereo unspecified), O=C1CCC(Cc2ccc(F)cc2F)CN1c1c(Cl)cc(N2C(=O)CCC2=O)cc1Cl (stereo unspecified), Cc1ccc(CC2CCC(=O)N(c3c(Cl)cccc3Cl)C2)cc1 (stereo unspecified), COCC1CC(Cc2ccc(F)cc2F)CN(c2c(Cl)cccc2Cl)C1=O (stereo unspecified), O=C1CSC(Cc2ccccc2)CN1c1c(Cl)cccc1Cl (stereo unspecified), O=C1CCC(Sc2ccc(Cl)cc2Cl)CN1c1c(Cl)cccc1Cl (stereo unspecified), Cc1ccc(CC2CCC(=O)N(c3c(Cl)ccnc3Cl)C2)cc1 (stereo unspecified), COc1ccc(CC2CCC(=O)N(C3C(Cl)CCCC3Cl)C2)cc1 (stereo unspecified), Cc1ccccc1SC1CCC(=O)N(c2c(Cl)cncc2Cl)C1 (stereo unspecified), O=C1CCC(Cc2ccc(Cl)cc2)CN1c1c(Cl)cncc1Cl (stereo unspecified), CNc1cc(Cl)c(N2CC(Oc3ccc(F)cc3F)CCC2=O)c(Cl)n1 (stereo unspecified), C=C(c1ccc(F)cc1F)C1CCC(=O)N(c2c(Cl)cccc2Cl)C1 (stereo unspecified), NC1CC(Cl)C(N2CC(Oc3ccc(F)cc3F)CCC2=O)C(Cl)C1 (stereo unspecified), COCOCc1ccccc1CC1CCC(=O)N(c2c(Cl)cccc2Cl)C1 (stereo unspecified), O=C1CCC(Sc2cc(F)cc(F)c2)CN1c1c(Cl)csc1Cl (stereo unspecified), O=C1OCC(Cc2cccc3ccccc23)CN1c1c(Cl)cccc1Cl (stereo unspecified), O=C(Cc1ccccc1)NC1CC(Cl)C(N2CC(Cc3ccc(F)cc3F)CCC2=O)C(Cl)C1 (stereo unspecified), CNc1cc(Cl)c(N2CC(Sc3ccc(F)cc3F)CCC2=O)c(Cl)n1 (stereo unspecified)
